In series [1] the test system is Jurkat. Put plainly: Cytotoxicity against human Jurkat T cells at <100 uM after 72 hrs. The series is classed as cell-based.
Series [2] relates to HL-60. Put plainly: Cytotoxicity against human HL60 cells at <100 uM after 72 hrs. The series is classed as cell-based. Conditions: hl-60, 72 h; call rule not given here.
For series [3], the system named is HeLa. Put plainly: Antimitotic activity against human HeLa cells after 18 hrs. The series is classed as functional, cell-based.
Series [4] in a line: Cytotoxicity against human MDA-MB-231 cells after 72 hrs. The series is classed as cell-based.
Series [5] in a line: Cytotoxicity against human A549 cells after 72 hrs. The series is classed as cell-based.
In series [6] the test system is HT-29. Put plainly: Cytotoxicity against human HT29 cells after 72 hrs. It is filed as cell-based. Conditions: ht-29, 72 h.
A short description of series [7]: Cytotoxicity against human Jurkat T cells after 72 hrs. The series is classed as cell-based.
The nature of series [8]: Cytotoxicity against human HL60 cells after 72 hrs. The series is classed as cell-based, HL-60.

pIC50: −log10 of the molar value.

13 molecules from ChEMBL document CHEMBL1139856, “Smallest peptoids with antiproliferative activity on human neoplastic cells” (J Med Chem, 2007) can be followed below.

Broadly, the pIC50 is the IC50 on a negative log10 scale, so that one unit is a factor of ten. A lower pIC50 goes with a high IC50. What is called GI50 is the concentration that inhibits growth by half.

With `NC(=O)CN(CC1CCCO1)C(=O)CNCCC(c1ccccc1)c1ccccc1` (stereo unspecified), the Activity entry in series [1] and in series [2] was “Not Active” in each case.
On to `NC(=O)CN(CCC(c1ccccc1)c1ccccc1)C(=O)CNCC1CCCO1` (stereo unspecified), for which the Activity entry in series [1] and in series [2] was “Not Active” each time.
On to `COc1ccc(CCN2CC(=O)N(CCC(c3ccccc3)c3ccccc3)CC2=O)cc1`, for which the Activity result in series [1] and in series [2] was “Not Active” in each case.
Consider `O=C1CN(CC2CCCO2)C(=O)CN1CCC(c1ccccc1)c1ccccc1` (stereo unspecified), for which the Activity entry in series [1] and in series [2] was “Not Active” throughout.
In series [3], `COc1ccc(CCN(CC(=O)NCCC(c2ccccc2)c2ccccc2)C(=O)CNCCC(c2ccccc2)c2ccccc2)cc1` had a pIC50 of 7.60. Further, the GI50 at 72 h turned out to be 1.02 µM in series [4], 1.02 µM in series [5], 3.75 µM in series [7] and 2.94 µM in series [8]. Besides, the GI in series [6] was 1.04 µM.
`O=C(CN(CCC(c1ccccc1)c1ccccc1)C(=O)CNCC1CCCO1)NCCC(c1ccccc1)c1ccccc1` (stereo unspecified): the GI50 at 72 h in series [4] came out at 1.06 µM; in series [5] it was 1.06 µM; in series [7], 5.83 µM; in series [8] it was 23 µM. Further, in series [6], the GI was found to be 0.94 µM.
With `COc1ccc(CCN(CC(=O)N(CCC(c2ccccc2)c2ccccc2)CC(N)=O)C(=O)CNCCC(c2ccccc2)c2ccccc2)cc1`, the GI50 at 72 h in series [4] is 1.32 µM; in series [5], 1.41 µM; in series [7], 6.68 µM; in series [8], 21.8 µM. This molecule showed a GI in series [6] of 1.41 µM.
In the case of `O=C(CNCCC(c1ccccc1)c1ccccc1)NCCC(c1ccccc1)c1ccccc1`, the pIC50 in series [3] was 7.46. In addition, the GI50 at 72 h in series [4] was 3.46 µM; in series [5] it was 3.46 µM; in series [7], 10.2 µM; in series [8] it was 12.6 µM. The same molecule had a GI in series [6] of 3.03 µM.
As to `COc1ccc(CCN(CC(N)=O)C(=O)CNCCC(c2ccccc2)c2ccccc2)cc1`, the concentration for 50% growth inhibition (GI50) at 72 h in series [4] was determined as 19.1 µM; in series [7], 33.9 µM; in series [8], 31.1 µM. In addition, the GI in series [6] turned out to be 9.14 µM.
Consider `NC(=O)CN(CCC(c1ccccc1)c1ccccc1)C(=O)CNCCC(c1ccccc1)c1ccccc1`, for which, in series [3], the pIC50 is 6.81. In addition, the 50% growth inhibitory concentration (GI50) at 72 h in series [4] stood at 3.08 µM; in series [5], 3.08 µM; in series [7], 10.5 µM; in series [8] it was 13.2 µM. The molecule also returned a GI in series [6] of 1.64 µM.
In the case of `COc1ccc(CCNCC(=O)N(CCC(c2ccccc2)c2ccccc2)CC(N)=O)cc1`, the GI50 at 72 h in series [4] was 9.36 µM; in series [5] it was 9.36 µM; in series [7], 27.3 µM; in series [8], 29.1 µM. In series [6], this molecule yielded a GI of 9.14 µM.
With `COc1ccc(CCNCC(=O)NCCC(c2ccccc2)c2ccccc2)cc1`, the pIC50 in series [3] is 6.00. For the same molecule, the GI50 at 72 h in series [4] was found to be 2.73 µM; in series [5], 3.73 µM; in series [7] it was 18 µM; in series [8], 10.6 µM. Moreover, the GI in series [6] worked out at 1.89 µM.
`NC(=O)CN(CCC(c1ccccc1)c1ccccc1)C(=O)CN(CCC(c1ccccc1)c1ccccc1)C(=O)CNCC1CCCO1` (stereo unspecified) [TRIMER I]: the GI50 at 72 h in series [4] worked out at 2.72 µM; in series [5], 2.57 µM; in series [7] it was 21.3 µM; in series [8] it was 3.55 µM. The GI in series [6] came out at 2.27 µM.
